This is an account of results in patent US20110086759A1, “CHEMICAL COMPOUNDS” (SYNGENTA CROP PROTECTION, INC., priority 2007, published 2011).

Holding throughout (assay type): in vivo
Test [1] deals with Alopecurus myosuroides (ALOMY). Briefly: Pre-emergence biological efficacy, glasshouse pot test. As to conditions: 312 h, pre-emergence, 1,000 g/ha, evaluated after 13 days (100=total damage; 0=no damage), read-out: Percentage damage ALOMY. The gist of the method: (§1)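 Scores on a 0–100 damage scale were taken 13 days after spraying. Application rate 1000 or 250 g/ha, one day after sowing, in acetone/water-based aqueous spray containing 0.5% Tween 20.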

Test [2] has as its system Amaranthus retoflexus (AMARE). Described as above. As to conditions: Amaranthus retroflexus, 312 h; pre-emergence, 1,000 g/ha, evaluated after 13 days (100=total damage; 0=no damage); read-out: Percentage damage AMARE. Put shortly: as §1
Test [3] relates to Echinochloa crus-galli (ECHCG). The test is described as above. The following applies: 312 h, pre-emergence, 1,000 g/ha, evaluated after 13 days (100=total damage; 0=no damage), read-out: Percentage damage ECHCG. The gist of the method:
as §1

Test [4] concerns Ipomea hederaceae (IPOHE). The test is described as above. As to conditions: Ipomoea hederacea, 312 h; pre-emergence, 1,000 g/ha, evaluated after 13 days (100=total damage; 0=no damage); read-out: Percentage damage IPOHE. The gist of the method:
as §1

In test [5] the test system is Setaria faberi (SETFA). Described as above. As to conditions: 312 h, pre-emergence, 1,000 g/ha, evaluated after 13 days (100=total damage; 0=no damage), read-out: Percentage damage SETFA. Put shortly:
as §1

The test system of test [6] is Solanum nigrum (SOLNI). The test is described as above. As to conditions: 312 h, pre-emergence, 1,000 g/ha, evaluated after 13 days (100=total damage; 0=no damage), read-out: Percentage damage SOLNI. The gist of the method:
as §1

Test [7] has as its system Alopecurus myosuroides (ALOMY). Briefly: Post-emergence biological efficacy, glasshouse pot test. The following applies: 312 h, post-emergence, 1,000 g/ha, evaluated after 13 days (100=total damage; 0=no damage), read-out: Percentage damage caused to weed species, ALOMY. Put shortly: (§2)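 Scored 13 days after spraying on a 0 (no damage) to 100 (total damage) scale. Treatment was a post-emergence spray at 1000 or 250 g/ha, from acetone/water 50:50 plus 0.5% Tween 20, onto 8-day-old plants in soil pots. Growth at 24/16° C, 14 h photoperiod, 65% humidity, watered twice daily.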

For test [8], the system named is Amaranthus retoflexus (AMARE). Described as above. As to conditions: Amaranthus retroflexus, 312 h; post-emergence, 1,000 g/ha, evaluated after 13 days (100=total damage; 0=no damage); read-out: Percentage damage caused to weed species, AMARE. The gist of the method: as §2
Test [9] has as its system Echinochloa crus-galli (ECHCG). The description is as above. As to conditions: 312 h, post-emergence, 1,000 g/ha, evaluated after 13 days (100=total damage; 0=no damage), read-out: Percentage damage caused to weed species, ECHCG. Put shortly: as §2
Test [10] deals with Ipomea hederaceae (IPOHE). The description is as above. As to conditions: Ipomoea hederacea, 312 h; post-emergence, 1,000 g/ha, evaluated after 13 days (100=total damage; 0=no damage); read-out: Percentage damage caused to weed species, IPOHE. Put shortly: as §2
The test system of test [11] is Setaria faberi (SETFA). The test is described as above. The following applies: 312 h, post-emergence, 1,000 g/ha, evaluated after 13 days (100=total damage; 0=no damage), read-out: Percentage damage caused to weed species, SETFA. Put shortly:
as §2

The test system of test [12] is Solanum nigrum (SOLNI). Described as above. The following applies: 312 h, post-emergence, 1,000 g/ha, evaluated after 13 days (100=total damage; 0=no damage), read-out: Percentage damage caused to weed species, SOLNI. Put shortly: as §2

On to `COC(=O)c1nc(C2CC2)nc(NCC(F)c2ccc(Br)cc2F)c1Cl` (stereo not drawn) [Compound 4-240, 4-[2-(4-Bromo-2-fluorophenyl)-2-fluoro-ethylamino]-5-chloro-2-cyclopropyl-6-methoxycarbonyl-pyrimidine], for which the pest or weed control at 1000 g/ha in [1] is 0%; in test [2] it was 30%; in test [3], 0%; in test [4], 0%; in the test on Setaria faberi (SETFA) [5] it was 0%; in the test on Solanum nigrum (SOLNI) [6], 10%. Moreover, the pest or weed control at 1000 g/ha in test [7] came out at 10%; in test [8], 100%; in [9], 0%; in [10], 60%; with Setaria faberi (SETFA) [11] it was 30%; with Solanum nigrum (SOLNI) [12] it was 70%.

With `COC(=O)c1nc(C2CC2)nc(NCC(C)(F)c2cccc(Cl)c2)c1Cl` (stereo not drawn) [Compound 4-241, 5-Chloro-4-[2-(3-chlorophenyl)-2-fluoro-propylamino]-2-cyclopropyl-6-methoxycarbonyl-pyrimidine], the pest or weed control at 1000 g/ha in [1] turned out to be 0%; in test [2], 30%; in test [3] it was 0%; in [4], 0%; in the test with Setaria faberi (SETFA) [5], 0%; in the test on Solanum nigrum (SOLNI) [6], 0%. For the same compound, the pest or weed control at 1000 g/ha was 0% in test [7]; 60% in test [8]; 10% in test [9]; 60% in test [10]; 30% in the test on Setaria faberi (SETFA) [11]; 70% in the test with Solanum nigrum (SOLNI) [12].

Regarding `COC(=O)c1nc(C2CC2)nc(NCC(C)(F)c2cccc(C(F)(F)F)c2)c1Cl` (stereo not drawn) [Compound 4-242, 5-Chloro-2-cyclopropyl-4-[2-fluoro-2-(3-trifluoromethyl-phenyl)propyl-amino]-6-methoxy-carbonylpyrimidine], the pest or weed control at 1000 g/ha in test [1] turned out to be 0%; in test [2], 10%; in [3] it was 0%; in test [4], 10%; in the test on Setaria faberi (SETFA) [5], 0%; with Solanum nigrum (SOLNI) [6], 0%. In addition, the pest or weed control at 1000 g/ha was 0% in test [7]; 90% in test [8]; 0% in test [9]; 50% in test [10]; 10% in the test with Setaria faberi (SETFA) [11]; 60% with Solanum nigrum (SOLNI) [12].

Consider `COC(=O)c1nc(C2CC2)nc(NCC(C)(F)c2ccc(Cl)cc2Cl)c1Cl` (stereo not drawn) [Compound 4-243, 5-Chloro-2-cyclopropyl-4-[2-(2,4-dichlorophenyl)-2-fluoro-propylamino]-6-methoxycarbonyl-pyrimidine], for which the pest or weed control at 1000 g/ha was 0% in test [1]; 40% in test [2]; 0% in test [3]; 0% in test [4]; 0% with Setaria faberi (SETFA) [5]; 10% with Solanum nigrum (SOLNI) [6]. The pest or weed control at 1000 g/ha in test [7] was 0%; in [8], 80%; in [9] it was 10%; in test [10], 60%; with Setaria faberi (SETFA) [11], 20%; in the test on Solanum nigrum (SOLNI) [12], 70%.

Regarding `CCCC(F)(CNc1nc(C2CC2)nc(C(=O)OC)c1Cl)c1ccc(Cl)cc1Cl` (stereo not drawn) [Compound 4-244, 5-Chloro-2-cyclopropyl-4-[2-(2,4-dichloro-phenyl)-2-fluoro-pentylamino]-6-methoxycarbonyl-pyrimidine], the pest or weed control at 1000 g/ha in test [1] was 0%; in test [2], 30%; in [3], 0%; in test [4], 0%; with Setaria faberi (SETFA) [5] it was 0%; in the test on Solanum nigrum (SOLNI) [6], 0%. Besides, the pest or weed control at 1000 g/ha came to 0% in [7]; 20% in test [8]; 0% in [9]; 50% in test [10]; 0% in the test with Setaria faberi (SETFA) [11]; 20% with Solanum nigrum (SOLNI) [12].

As to `COC(=O)c1nc(C2CC2)nc(NCCCN2CCCC2=O)c1Cl` [Compound 4-246, 5-Chloro-2-cyclopropyl-6-methoxycarbonyl-4-[3-(2-oxo-pyrrolidin-1-yl)propylamino]-pyrimidine], the pest or weed control at 1000 g/ha in [1] was determined as 0%; in test [2] it was 80%; in test [3] it was 0%; in test [4], 30%; in the test with Setaria faberi (SETFA) [5], 0%; in the test on Solanum nigrum (SOLNI) [6], 20%. For the same compound, the pest or weed control at 1000 g/ha in [7] stood at 0%; in test [8], 100%; in test [9] it was 0%; in test [10] it was 60%; in the test on Setaria faberi (SETFA) [11], 30%; in the test with Solanum nigrum (SOLNI) [12], 50%.

On to `COC(=O)c1nc(C2CC2)nc(NCCCN2CCCCC2C)c1Cl` (stereo not drawn) [Compound 4-247, 5-Chloro-2-cyclopropyl-6-methoxycarbonyl-4-[3-(2-methyl-piperidin-1-yl)-propylamino]-pyrimidine], for which the pest or weed control at 1000 g/ha in [1] amounted to 10%; in test [2], 30%; in [3], 10%; in test [4] it was 20%; in the test on Setaria faberi (SETFA) [5], 10%; with Solanum nigrum (SOLNI) [6] it was 70%. For the same compound, the pest or weed control at 1000 g/ha in test [7] was determined as 10%; in test [8], 100%; in test [9], 20%; in test [10] it was 50%; with Setaria faberi (SETFA) [11], 20%; in the test on Solanum nigrum (SOLNI) [12], 50%.

For the compound `COC(=O)c1nc(C2CC2)nc(NCCCc2ccccc2)c1Cl` [Compound 4-249, 5-Chloro-2-cyclopropyl-6-methoxycarbonyl-4-(3-phenylpropyl-amino)pyrimidine], the pest or weed control at 1000 g/ha was found to be 20% in test [1]; 60% in test [2]; 50% in test [3]; 100% in test [4]; 50% in the test with Setaria faberi (SETFA) [5]; 80% with Solanum nigrum (SOLNI) [6]. The pest or weed control at 1000 g/ha in [7] turned out to be 30%; in [8], 100%; in [9], 50%; in test [10] it was 90%; with Setaria faberi (SETFA) [11], 70%; in the test with Solanum nigrum (SOLNI) [12], 100%.

As for `COC(=O)c1nc(C2CC2)nc(NCCCn2ccnc2)c1Cl` [Compound 4-250, 5-Chloro-2-cyclopropyl-4-[3-(imidazol-1-yl)propylamino]-6-methoxycarbonyl-pyrimidine], the pest or weed control at 1000 g/ha came out at 0% in [1]; 90% in [2]; 0% in test [3]; 80% in [4]; 0% in the test with Setaria faberi (SETFA) [5]; 40% in the test with Solanum nigrum (SOLNI) [6]. Also, the pest or weed control at 1000 g/ha in test [7] came out at 0%; in test [8], 100%; in [9], 30%; in test [10], 100%; in the test on Setaria faberi (SETFA) [11], 50%; in the test on Solanum nigrum (SOLNI) [12] it was 70%.
